Results from patent publication US5286864A, “Quinuclidines, their use as medicaments and processes for their preparation” (Boehringer Ingelheim KG, priority 1988, dated 1994).
pKi: −log10 of the molar value.

Tests used:
muscarine receptors = test: Receptor bonding studies (radioligand L(+)cis-[2-methyl-^3 H]-N,N,N-trimethyl-1,3-dioxolane-4-methanammonium iodide); type: binding; details: cerebral cortex (rat); radioligand L(+)cis-[2-methyl-^3 H]-N,N,N-trimethyl-1,3-dioxolane-4-methanammonium iodide NET-647
Procedure: The compounds of the general formula I have useful pharmacological properties.
The receptor bonding studies were performed in accordance with the following literature reference [A. Closse, H. bittiger, D. Langenegger and A. Wahner; Naunyn-Schmiedeberg's Arch. Pharmacol. 335,372-377 (1987)].
Receptor bonding studies
L(+)cis-[2-methyl-^3 H]-N,N,N-trimethyl-1,3-
dioxolane-4-methanammonium iodide NET-647,
NEN (New England Nuclear DU PONT).
Organ: Cerebral cortex (rat)

conscious rabbit = test: EEG (electroencephalogram) of the conscious rabbit; type: in vivo; details: 3 mg/kg i.v.

`CCCOC1CN2CCC1CC2` (stereo not drawn) [nC3 H7] gave a pKi (muscarine receptors) of 6.66.
For `C#CCOC1CN2CCC1CC2` (stereo not drawn) [Example 1, 3-(2-Propynyloxy)-1-azabicyclo[2,2,2]octane], the “arousal reaction in the EEG” value (conscious rabbit) was “exhibits an arousal reaction typical of cholinomimetics” and the pKi (muscarine receptors) was 6.80.
